Results on two compounds are retold here after publication PMC6332508, “A Promising PET Tracer for Imaging of α7 Nicotinic Acetylcholine Receptors in the Brain: Design, Synthesis, and in Vivo Evaluation of a Dibenzothiophene-Based Radioligand” (Molecules, 2015).

One data set deals with rat α6β2* nAChR (Rattus norvegicus, UniProt P12390+P43143). Nature of the data set: [3H]epibatidine binding to antibody-immobilized native rat α6β2* nAChR from striatum. The note with it: read-out: Affinity (Ki in nM) rα6β2*, immunoimmobilization with anti-rα6 antibody, [3H]epibatidine 0.1 nM. On the procedure: The specificity of the anti-α6 antibody was tested as described. The receptors were prepared and immobilized as previously described by the subunit-specific antibody. […] Incubations were performed in a buffer containing 50 mM Tris-HCl, pH 7, 150 mM NaCl, 5 mM KCl, 1 mM MgCl2, 2.5 mM CaCl2, 2 mg∙mL^−1 BSA, and 0.05% Tween 20. Specific ligand binding was defined as total binding minus the binding in the presence of 100 nM (±)-epibatidine dihydrochloride hydrate.
Chain of rat α6β2* nAChR (P43143 31-493): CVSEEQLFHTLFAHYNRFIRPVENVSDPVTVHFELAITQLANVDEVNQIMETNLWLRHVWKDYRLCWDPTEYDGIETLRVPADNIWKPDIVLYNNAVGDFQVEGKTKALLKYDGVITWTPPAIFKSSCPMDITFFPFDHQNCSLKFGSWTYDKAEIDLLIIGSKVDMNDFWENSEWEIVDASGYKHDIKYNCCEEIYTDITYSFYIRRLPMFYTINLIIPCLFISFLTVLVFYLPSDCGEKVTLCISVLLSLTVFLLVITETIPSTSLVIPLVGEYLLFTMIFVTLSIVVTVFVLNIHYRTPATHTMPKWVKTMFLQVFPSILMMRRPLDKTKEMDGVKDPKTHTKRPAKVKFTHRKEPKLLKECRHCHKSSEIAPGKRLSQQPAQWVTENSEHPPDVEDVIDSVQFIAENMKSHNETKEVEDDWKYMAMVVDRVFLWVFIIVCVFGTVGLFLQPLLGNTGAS
Chain of rat α6β2* nAChR (P12391 31-464, further chain): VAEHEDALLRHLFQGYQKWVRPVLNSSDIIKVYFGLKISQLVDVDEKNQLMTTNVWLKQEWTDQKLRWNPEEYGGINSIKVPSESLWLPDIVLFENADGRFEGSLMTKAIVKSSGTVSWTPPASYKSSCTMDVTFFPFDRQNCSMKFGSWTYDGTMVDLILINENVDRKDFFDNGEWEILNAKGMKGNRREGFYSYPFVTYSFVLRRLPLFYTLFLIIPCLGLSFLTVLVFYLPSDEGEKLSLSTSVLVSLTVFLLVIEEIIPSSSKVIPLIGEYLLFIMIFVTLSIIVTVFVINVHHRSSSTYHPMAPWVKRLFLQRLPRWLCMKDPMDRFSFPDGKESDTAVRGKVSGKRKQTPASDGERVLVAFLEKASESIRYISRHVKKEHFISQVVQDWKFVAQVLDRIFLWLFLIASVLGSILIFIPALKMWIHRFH
Chain of rat α6β2* nAChR (P12390 25-500): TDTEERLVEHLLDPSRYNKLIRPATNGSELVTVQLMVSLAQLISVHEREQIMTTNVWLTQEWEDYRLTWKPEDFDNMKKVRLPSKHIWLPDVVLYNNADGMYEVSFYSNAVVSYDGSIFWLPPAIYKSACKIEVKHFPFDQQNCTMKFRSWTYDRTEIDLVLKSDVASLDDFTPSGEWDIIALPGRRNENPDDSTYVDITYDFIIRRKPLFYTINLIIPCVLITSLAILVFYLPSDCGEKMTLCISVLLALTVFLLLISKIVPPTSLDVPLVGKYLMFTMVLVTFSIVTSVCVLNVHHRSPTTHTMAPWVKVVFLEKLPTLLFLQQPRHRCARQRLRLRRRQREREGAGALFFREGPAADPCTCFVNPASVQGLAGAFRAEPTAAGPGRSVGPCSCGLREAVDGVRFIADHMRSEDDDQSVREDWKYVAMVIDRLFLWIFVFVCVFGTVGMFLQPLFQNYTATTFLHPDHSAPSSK
The experimental data obtained from the binding experiments were analyzed by means of a non-linear least square procedure using the LIGAND program. The Ki values of the test compounds were also determined by means of the LIGAND program by simultaneously fitting the data obtained from three to five independent saturation and competition binding experiments.

Another data set addresses T1, α1 nAChR (Homo sapiens, UniProt P02708+P07510+Q07001).
T1 construct: Eurofins Panlabs, Inc
As to the kind of experiment: Off-target radioligand binding assay, α1 nAChR. The following applies: 1 μM; significant at ≥50% inhibition or stimulation. On the procedure:
(§1) The activity of compound 10a was evaluated by a contract research organization (Eurofins Panlabs, Inc.). The test concentration was 1 μM and radioligand binding assays for dopamine transporter (DAT), serotonin transporter (SERT), norepinephrine transporter (NET), monoamine transporter (VMAT), choline transporter, and α1 nAChR performed according to the manufacturer’s protocols.

In the next data set the target is T2, human α7 nAChR (Homo sapiens, UniProt P36544).
T2 construct: expressed in transfected cells; host or cells: SH-SY5Y
T2 sequence (P36544 23-502): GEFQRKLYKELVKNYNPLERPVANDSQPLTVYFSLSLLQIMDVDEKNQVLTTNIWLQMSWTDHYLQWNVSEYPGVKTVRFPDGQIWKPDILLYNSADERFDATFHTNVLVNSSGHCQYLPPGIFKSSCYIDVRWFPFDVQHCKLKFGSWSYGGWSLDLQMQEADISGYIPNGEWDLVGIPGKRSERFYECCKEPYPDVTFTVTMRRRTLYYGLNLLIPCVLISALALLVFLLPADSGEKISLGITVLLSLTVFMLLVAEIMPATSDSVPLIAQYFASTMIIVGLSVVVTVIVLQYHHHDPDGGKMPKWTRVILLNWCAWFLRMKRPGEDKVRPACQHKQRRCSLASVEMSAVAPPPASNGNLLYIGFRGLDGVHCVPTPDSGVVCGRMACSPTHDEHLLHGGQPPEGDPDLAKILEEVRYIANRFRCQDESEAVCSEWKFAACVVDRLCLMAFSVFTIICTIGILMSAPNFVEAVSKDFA
As to the kind of experiment: Radioligand displacement at human α7 nAChR, [3H]methyllycaconitine, SH-SY5Y cells. In kind it is binding. (In general: Displacement assays read how much labelled ligand stays bound in the presence of the test substance.)

For a further data set, the target named is α3β4 nAChR. Also on record: method as in PMID 24050653. The following applies: rat receptor subtype; cited from earlier work.
The target of the next data set is T3, human 5-HT3 receptor (Homo sapiens, UniProt P46098).
T3 construct: host or cells: HEK-293
T3 sequence (P46098 24-478): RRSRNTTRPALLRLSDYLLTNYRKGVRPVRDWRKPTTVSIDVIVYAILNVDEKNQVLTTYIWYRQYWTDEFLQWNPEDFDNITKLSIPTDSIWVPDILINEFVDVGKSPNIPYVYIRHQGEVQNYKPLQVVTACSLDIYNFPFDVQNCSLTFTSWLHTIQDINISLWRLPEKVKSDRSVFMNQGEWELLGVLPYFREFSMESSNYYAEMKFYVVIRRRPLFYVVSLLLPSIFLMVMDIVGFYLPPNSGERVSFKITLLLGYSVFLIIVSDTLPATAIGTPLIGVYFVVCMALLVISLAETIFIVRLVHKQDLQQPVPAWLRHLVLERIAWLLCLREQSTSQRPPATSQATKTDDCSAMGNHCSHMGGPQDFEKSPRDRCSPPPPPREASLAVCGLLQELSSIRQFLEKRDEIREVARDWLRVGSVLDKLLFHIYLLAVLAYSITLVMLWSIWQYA
As to the kind of experiment: Radioligand binding at human 5-HT3 receptor, [3H]GR65630 (Eurofins Panlabs).

A further data set concerns the target T4, human α3β4 nAChR (Homo sapiens, UniProt P30926+P32297).
T4 construct: expressed in transfected cells; host or cells: HEK293
Nature of the data set: Radioligand displacement at human α3β4 nAChR, [3H]epibatidine, HEK293 cells. In kind it is binding. The note with it: stably transfected HEK-293 cells, [3H]epibatidine; read-out: Affinity (Ki in nM) hα3β4. How it is done:
(§2) The affinity of the test compounds for human α4β2 and α3β4 nAChR was determined as described above. In brief, HEK293 cells stably expressing human α4β2 or α3β4 nAChR [66] were cultured. […] Nonspecific binding was determined in the presence of 300 μM (−)-nicotine tartrate. Incubation of the samples, separation of free from receptor-bound radioligand, and data evaluation were performed as described above.

The target of data set [1] is T5, serotonin transporter (SERT) (Homo sapiens, UniProt P31645).
T5 construct: Eurofins Panlabs, Inc
T5 sequence (P31645 whole entry, species assumed): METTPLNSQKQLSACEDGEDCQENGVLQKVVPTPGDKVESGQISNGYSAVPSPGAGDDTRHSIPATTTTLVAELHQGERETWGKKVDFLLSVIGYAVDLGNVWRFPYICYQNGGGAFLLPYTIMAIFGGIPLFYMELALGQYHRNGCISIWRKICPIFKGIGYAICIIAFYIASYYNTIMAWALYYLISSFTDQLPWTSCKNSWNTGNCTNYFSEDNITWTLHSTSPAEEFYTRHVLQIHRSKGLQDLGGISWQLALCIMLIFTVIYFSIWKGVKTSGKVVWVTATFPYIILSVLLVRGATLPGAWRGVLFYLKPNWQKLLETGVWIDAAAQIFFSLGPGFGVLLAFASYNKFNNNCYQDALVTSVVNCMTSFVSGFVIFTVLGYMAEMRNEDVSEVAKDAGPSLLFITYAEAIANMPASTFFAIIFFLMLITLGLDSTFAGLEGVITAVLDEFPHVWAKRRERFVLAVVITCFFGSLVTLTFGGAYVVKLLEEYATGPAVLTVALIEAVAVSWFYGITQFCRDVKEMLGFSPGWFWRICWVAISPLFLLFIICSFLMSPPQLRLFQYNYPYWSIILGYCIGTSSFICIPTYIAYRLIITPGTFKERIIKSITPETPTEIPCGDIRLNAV
As to the kind of experiment: Off-target radioligand binding assay, SERT. The note with it: 1 μM; significant at ≥50% inhibition or stimulation. How it is done:
as §1

Data set [2] addresses T6, dopamine transporter (DAT) (Homo sapiens, UniProt Q01959).
T6 construct: Eurofins Panlabs, Inc
As to the kind of experiment: Off-target radioligand binding assay, DAT. The following applies: 1 μM; significant at ≥50% inhibition or stimulation. On the procedure:
as §1

Another data set addresses T7, choline transporter (Homo sapiens, UniProt Q9GZV3).
T7 construct: Eurofins Panlabs, Inc
T7 sequence (Q9GZV3 1-580): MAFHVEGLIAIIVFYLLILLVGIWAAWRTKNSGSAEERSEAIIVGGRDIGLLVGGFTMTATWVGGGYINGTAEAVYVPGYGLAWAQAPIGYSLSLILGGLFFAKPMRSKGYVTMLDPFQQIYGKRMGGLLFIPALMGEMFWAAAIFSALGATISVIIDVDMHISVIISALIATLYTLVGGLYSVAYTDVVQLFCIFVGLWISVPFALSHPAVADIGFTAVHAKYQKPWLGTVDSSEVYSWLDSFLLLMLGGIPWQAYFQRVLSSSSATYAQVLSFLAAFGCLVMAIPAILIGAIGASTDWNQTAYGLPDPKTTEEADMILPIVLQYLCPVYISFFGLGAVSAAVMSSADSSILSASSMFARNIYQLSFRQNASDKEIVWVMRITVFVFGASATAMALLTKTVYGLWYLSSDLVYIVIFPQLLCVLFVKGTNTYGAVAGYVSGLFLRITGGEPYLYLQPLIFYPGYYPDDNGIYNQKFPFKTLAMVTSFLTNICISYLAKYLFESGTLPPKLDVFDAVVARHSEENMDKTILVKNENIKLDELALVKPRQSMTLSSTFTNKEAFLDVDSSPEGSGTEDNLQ
As to the kind of experiment: Off-target radioligand binding assay, choline transporter. The note with it: 1 μM; significant at ≥50% inhibition or stimulation. On the procedure: as §1

A short description of data set [3]: Acute toxicity study in rats, single intravenous injection. It is filed as in vivo, Wistar rats. How it is done: The acute toxicity of 10a was assessed when administered by a single intravenous injection to rats followed by an observation period of 2 or 15 day (Hameln rds, Modra, Slovak Republic). The study was performed with 4 test groups, including 1 control and 3 dose groups (6.2, 62 and 620 μg∙kg^−1), with 60 males and 60 females Wistar rats divided into two experiment cohorts: Day 2 (40 males and 40 females) and Day 15 (20 males and 20 females). The animals were weighed and allocated to the test groups based on their body weights. The animals were sacrificed in two time periods (day 2 and day 15 after test item administration) and then examined macroscopically and histopathologically. The following parameters were evaluated: mortality, clinical observation, body weights, food consumption, haematology (white blood cells, red blood cells, hemoglobin, hematocrit, mean corpuscular volume, mean corpuscular hemoglobin, platelets, lympohcytes, neutrophils, eosinophils, basophils, monocytes), clinical chemistry (alkaline phosphatase, aspartate aminotransferase, alanine aminotransferase, glucose, cholesterol, triacylglycerols, creatinine, urea, bilirubin, albumin, calcium, phosphorus, sodium, potassium chloride), pathology and histopathology.

Data set [4] relates to monoamine transporter (VMAT). As to the kind of experiment: Off-target radioligand binding assay, VMAT. The following applies: 1 μM; significant at ≥50% inhibition or stimulation. On the procedure: as §1
For data set [5], the target named is T8, norepinephrine transporter (NET) (Homo sapiens, UniProt P23975).
T8 construct: Eurofins Panlabs, Inc
As to the kind of experiment: Off-target radioligand binding assay, NET. The note with it: 1 μM; significant at ≥50% inhibition or stimulation. On the procedure:
as §1

Data set [6] deals with α7 nAChR. The following applies: [125I]α-bungarotoxin labelled rat cortical membranes; cited from earlier work.
The target in the next data set is T9, human α4β2 nAChR (Homo sapiens, UniProt P17787+P43681).
T9 construct: expressed in transfected cells; host or cells: HEK293
T9 sequence (P43681 29-627 limits assumed): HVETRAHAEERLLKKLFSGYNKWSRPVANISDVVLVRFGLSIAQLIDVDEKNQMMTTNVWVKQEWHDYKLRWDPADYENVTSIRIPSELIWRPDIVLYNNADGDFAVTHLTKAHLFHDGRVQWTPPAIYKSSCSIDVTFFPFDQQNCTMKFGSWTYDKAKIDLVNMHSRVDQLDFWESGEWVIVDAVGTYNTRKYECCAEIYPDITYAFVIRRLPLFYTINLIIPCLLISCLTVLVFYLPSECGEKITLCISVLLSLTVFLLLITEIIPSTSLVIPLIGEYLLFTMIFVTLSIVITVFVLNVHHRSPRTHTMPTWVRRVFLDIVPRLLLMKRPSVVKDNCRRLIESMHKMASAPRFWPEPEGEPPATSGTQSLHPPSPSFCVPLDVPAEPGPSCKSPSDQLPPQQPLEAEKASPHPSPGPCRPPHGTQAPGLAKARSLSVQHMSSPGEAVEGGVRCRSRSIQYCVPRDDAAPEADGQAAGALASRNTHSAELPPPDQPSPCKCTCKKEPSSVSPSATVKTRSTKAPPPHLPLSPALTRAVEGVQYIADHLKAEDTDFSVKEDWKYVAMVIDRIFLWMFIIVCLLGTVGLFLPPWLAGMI
T9 sequence (P17787 26-502): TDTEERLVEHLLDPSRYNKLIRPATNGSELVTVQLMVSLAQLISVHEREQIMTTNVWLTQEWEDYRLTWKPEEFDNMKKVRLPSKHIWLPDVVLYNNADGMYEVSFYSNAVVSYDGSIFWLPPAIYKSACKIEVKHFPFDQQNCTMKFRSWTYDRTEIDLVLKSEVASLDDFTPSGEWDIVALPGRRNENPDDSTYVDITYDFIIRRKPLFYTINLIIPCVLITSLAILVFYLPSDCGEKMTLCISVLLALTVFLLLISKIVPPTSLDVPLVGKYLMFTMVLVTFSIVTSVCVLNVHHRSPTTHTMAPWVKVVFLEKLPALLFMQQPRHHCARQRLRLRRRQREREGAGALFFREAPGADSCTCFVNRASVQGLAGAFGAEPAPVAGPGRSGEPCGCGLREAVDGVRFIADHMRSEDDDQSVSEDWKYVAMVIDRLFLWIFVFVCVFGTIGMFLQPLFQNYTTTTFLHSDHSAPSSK
As to the kind of experiment: Radioligand displacement at human α4β2 nAChR, [3H]epibatidine, HEK293 cells. In kind it is binding. The following applies: stably transfected HEK-293 cells, [3H]epibatidine; read-out: Affinity (Ki in nM) hα4β2. On the procedure:
as §2

In data set [7] the target is α7 nAChR. Further details: method as in PMID 22281189. The following applies: cited from earlier work.

Molecules are shown by their SMILES. Like-named read-outs stand apart in the source and are kept apart here.

T4 sequence (P32297 32-505): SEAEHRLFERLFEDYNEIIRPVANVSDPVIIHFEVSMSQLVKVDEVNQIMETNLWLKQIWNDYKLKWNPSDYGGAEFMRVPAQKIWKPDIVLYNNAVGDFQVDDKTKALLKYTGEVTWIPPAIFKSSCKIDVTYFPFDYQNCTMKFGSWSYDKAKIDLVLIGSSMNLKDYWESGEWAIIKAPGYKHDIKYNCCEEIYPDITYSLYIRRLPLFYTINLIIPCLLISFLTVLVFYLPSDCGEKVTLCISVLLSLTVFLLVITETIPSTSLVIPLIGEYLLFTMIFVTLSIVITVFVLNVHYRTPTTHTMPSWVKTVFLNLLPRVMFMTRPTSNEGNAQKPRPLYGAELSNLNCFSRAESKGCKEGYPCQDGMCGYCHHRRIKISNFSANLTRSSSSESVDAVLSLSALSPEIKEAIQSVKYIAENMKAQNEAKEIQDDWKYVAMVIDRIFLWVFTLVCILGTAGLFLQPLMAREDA
T4 sequence (P30926 22-498): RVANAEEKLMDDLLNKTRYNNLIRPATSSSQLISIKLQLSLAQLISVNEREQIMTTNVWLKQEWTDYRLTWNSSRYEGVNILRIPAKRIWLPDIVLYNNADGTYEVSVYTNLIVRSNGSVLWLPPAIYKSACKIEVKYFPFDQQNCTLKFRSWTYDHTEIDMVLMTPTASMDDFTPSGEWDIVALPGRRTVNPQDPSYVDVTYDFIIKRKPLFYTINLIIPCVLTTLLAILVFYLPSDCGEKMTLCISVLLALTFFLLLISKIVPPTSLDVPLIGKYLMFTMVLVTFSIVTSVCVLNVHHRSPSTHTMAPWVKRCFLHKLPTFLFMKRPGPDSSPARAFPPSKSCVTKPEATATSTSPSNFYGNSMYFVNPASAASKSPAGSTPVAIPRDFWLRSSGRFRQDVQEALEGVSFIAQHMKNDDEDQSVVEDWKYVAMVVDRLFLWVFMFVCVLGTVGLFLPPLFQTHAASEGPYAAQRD

The term Ki denotes the dissociation constant of the complex between target and ligand, obtained from inhibition or displacement. As usually defined, the inhibition is the percentage by which the read-out fell short of the control. Consider `O=S1(=O)c2ccc(F)cc2-c2ccc(N3CCN4CCC3CC4)cc21` [Compound 10a, 7-(1,4-Diazabicyclo[3.2.2]nonan-4-yl)-2-fluorodibenzo[b,d]thiophene 5,5-dioxide], for which the Ki on rat α6β2* nAChR is 589 ± 217 nM; on human α7 nAChR (stably transfected SH-SY5Y cells, [3H]methyllycaconitine, read-out: Affinity (Ki in nM) hα7) it was 0.6 ± 0.44 nM; on α3β4 nAChR, 5 µM; on human 5-HT3 receptor (recombinant HEK293 cells, [3H]GR65630, estimated from seven concentrations (20 μM–5 nM), read-out: Affinity (Ki in nM) 5-HT3) it was 440 nM; on human α3β4 nAChR, 119 ± 29 nM; at α7 nAChR [6], 0.0014 µM. The Ki at human α4β2 nAChR was 517 ± 375 nM. The “binding to α1 nAChR” value on α1 nAChR is “no significant binding”. Also, at human α7 nAChR (Ki hα3β4 divided by Ki hα7), the “Selectivity (Ki ratio) α7/α3β4” value turned out to be 198. The “Selectivity (Ki ratio) α7/α4β2” value at human α7 nAChR (Ki hα4β2 divided by Ki hα7) is reported as 862. Further, on human 5-HT3 receptor (0.1 μM concentration of test compound, [3H]GR65630 binding, read-out: 5-HT3 percentage of inhibition), the inhibition at 0.1 µM came to 2%. In addition, in data set [1], the “binding to SERT” value was “no significant binding”. Moreover, the “binding to DAT” value in data set [2] is on record as “no significant binding”. Besides, the “binding to choline transporter” value on choline transporter was “no significant binding”. For the same compound, the “body weights, control vs treated groups” value in [3] (6.2, 62 and 620 μg∙kg^−1 single i.v., either gender) is reported as “No statistically significant differences”. For the same compound, the clinical observation result in data set [3] (6.2, 62 and 620 μg∙kg^−1 single i.v., rats) is “no notable clinical effects”. Also, the “pathological and histopathological parameters” value in [3] (single i.v., Day 2 or Day 15, rats) is “did not result in changes”. The “no observed effect level (NOEL)” value in [3] (single intravenous injection, rats, observation 2 or 15 day) was determined as 0.62 mg/kg. Also, the “binding to VMAT” value in [4] is “no significant binding”. In data set [5], the “binding to NET” value is given as “no significant binding”.
Turning to `CCN(CC)CCOc1ccc2c(c1)C(=O)c1cc(OCCN(CC)CC)ccc1-2` [tilorone], at α7 nAChR [7], the Ki is 0.056 µM.
